Data taken from patent US12552788B2 (priority 2020, dated 2026).

Tested on: IFN β-production
Conditions: soluble, unformulated form
Method: (FIG. 3A) Bioluminescence images of luciferase reporter mice (IFβ+/Δβ-luc); images taken 4, 24 and 48 h post footpad injection of IMDQ-PEG-CHOL, IMDQ-PEG and native IMDQ.
In vivo immune activation imaging. Luciferase reporter mice (IFNβ+/Δβ-luc) with a BALB/c background, aged 7-9 weeks, were housed in individual ventilated cages and given ad libitum access to food and water. 20 mL of IMDQ-PEG-CHOL, IMDQ-PEG or IMDQ were injected subcutaneously in the footpad (n=3) at an equivalent INDQ dose of 2 mg. For in vivo imaging at the given time points, mice were injected subcutaneously with 200 μL D-luciferin and in vivo luminescence imaging was recorded 12 min later using the IVIS Lumina II imaging system. Local (DLN and DLN+foot pad) luminescence and full-body luminescence were quantified using the Living Image 4.4 software.

**Q.** Which “entry into systemic circulation upon local administration” value does the source give for `CCCCc1nc2c(N)nc3ccccc3c2n1Cc1ccc(CN)cc1` [IMDQ, 1-(4-(aminomethyl)benzyl)-2-butyl-1H-imidazo[4,5-c]quinolin-4-amine] here?
**A.** Its value is “rapidly enters systemic circulation”.
